The record followed here is US20020151595A1, “Carboxylic acid amides having antithrombotic activity” (priority 2001, published 2002).

For orientation: IC50 means the point on the concentration scale where inhibition reaches its midpoint. High values mean weaker potency, low ones greater potency.

Each structure is given as a SMILES string.

The target in the test is T1, human factor Xa (Homo sapiens, UniProt P00742).
T1 construct: human factor Xa; purchased Roche
T1 sequence (P00742 235-488 limits assumed): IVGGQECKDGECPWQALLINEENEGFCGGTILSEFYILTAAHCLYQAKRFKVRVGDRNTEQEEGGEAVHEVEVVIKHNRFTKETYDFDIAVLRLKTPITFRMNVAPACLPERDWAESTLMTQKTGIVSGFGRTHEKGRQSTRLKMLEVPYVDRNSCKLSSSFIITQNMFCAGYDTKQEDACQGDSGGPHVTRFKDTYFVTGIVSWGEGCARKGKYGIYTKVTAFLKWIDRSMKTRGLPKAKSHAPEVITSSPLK
T1 sequence (P00742 41-179 partner limits assumed): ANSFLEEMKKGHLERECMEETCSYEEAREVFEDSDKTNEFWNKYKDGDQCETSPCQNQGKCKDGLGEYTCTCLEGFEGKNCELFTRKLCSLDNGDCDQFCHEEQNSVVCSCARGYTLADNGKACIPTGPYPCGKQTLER
The test is described as follows: Inhibition of factor Xa, enzyme-kinetic measurement with chromogenic substrate. Format: biochemical. The settings on record: chromogenic substrate Chromozym X 200 μMol/l, pH 8.0, 37° C., photometric at 405 nm. On the procedure: Method: Enzyme-kinetic measurement with chromogenic substrate. The quantity of anpnitroaniline (pNA) released from the colourless chromogenic substrate by human factor Xa is determined photometrically at 405 nm. It is proportional to the activity of the enzyme used. The inhibition of the enzyme activity by the test substance (in relation to the solvent control) is determined at various concentrations of test substance and from this the IC50 is calculated, as the concentration which inhibits the factor Xa used by 50%.
Material: Tris(hydroxymethyl)-aminomethane buffer (100 mmol) and sodium chloride (150 mMol), pH 8.0
Factor Xa (Roche), spec. activity: 10 U/0.5 ml, final concentration: 0.175 U/ml per reaction mixture
Substrate Chromozym X (Roche), final concentration: 200 μMol/l per reaction mixture
Procedure: 10 μl of a 23.5-times concentrated starting solution of the test substance or solvent (control), 175 μl of tris(hydroxymethyl)-aminomethane buffer and 25 μl of a 1.65 U/ml Factor Xa working solution are incubated for 10 minutes at 37° C. After the addition of 25 μl of Chromozym X working solution ([…]) the sample is measured in a photometer (SpectraMax 250) at 405 nm for 150 seconds at 37° C.
1. Determining the maximum increase (deltaOD/minutes) over 3 measuring points.
2. Determining the % inhibition based on the solvent control.
3. Plotting a dosage/activity curve (% inhibition vs substance concentration).
4. Determining the IC50 by interpolating the X value (substance concentration) of the dosage/activity curve at Y=50% inhibition.
In turn, `N=C(N)c1ccc(O)c(CC(=O)Nc2ccc(C(=O)N3CCCC3)c(Cl)c2)c1` [(3)] gave an IC50 of 0.033 µM.

`N=C(N)c1ccc(O)c(CC(=O)Nc2ccc(C(=O)N3CCCC3)c(C(F)(F)F)c2)c1` [(4)]: the IC50 worked out at 0.011 µM.

Consider `Cc1cc(NC(=O)C(C)(C)c2cccc(C(=N)N)c2)ccc1C(=O)N1CCCC1` [(1)], for which the IC50 came to 0.028 µM.

`Cc1cc(NC(=O)Cc2cc(C(=N)N)ccc2O)ccc1C(=O)C1CCCNC1` (stereo not shown) [(2)] showed an IC50 of 0.32 µM. This IC50 lies about 11-fold higher than the previous one.
